# Results taken from ChEMBL document CHEMBL5236646, “Design, synthesis, and biological evaluation of BRD4 degraders” (Bioorg Med Chem, 2023).
# Activity calls are given as the source filed them. No cut-off for these calls is given here.
# Columns and labels:
# [1] = target: T1, Protein cereblon/Bromodomain-containing protein 4 (Homo sapiens) (UniProt O60885+Q96SW2); experiment: Protac activity at CRBN/BRD4 in human MM1.S cells assessed as induction of BRD4 protein degradation by measuring residual activity at 300 nM measured after 9 hrs by Western blot analysis (reference value: 317%); type: cell-based
# T1 sequence (Q96SW2 whole entry, looked up, other chains not shown): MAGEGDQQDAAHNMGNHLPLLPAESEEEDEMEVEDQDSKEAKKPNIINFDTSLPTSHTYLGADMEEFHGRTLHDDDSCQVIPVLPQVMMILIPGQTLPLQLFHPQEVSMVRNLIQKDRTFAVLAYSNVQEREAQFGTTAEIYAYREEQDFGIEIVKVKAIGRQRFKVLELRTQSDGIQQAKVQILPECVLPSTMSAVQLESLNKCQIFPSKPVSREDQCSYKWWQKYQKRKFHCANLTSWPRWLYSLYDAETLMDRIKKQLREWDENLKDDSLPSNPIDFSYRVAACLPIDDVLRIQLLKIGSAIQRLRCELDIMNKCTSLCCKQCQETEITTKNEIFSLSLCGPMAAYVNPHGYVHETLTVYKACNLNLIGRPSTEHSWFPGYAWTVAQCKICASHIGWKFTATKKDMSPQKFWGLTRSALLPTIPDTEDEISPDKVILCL
# MM1.S = experiment: Antiproliferative activity against human MM1.S cells assessed as inhibition of cell growth incubated for 72 hrs MTS assay; type: functional, cell-based
# MV4-11 = experiment: Antiproliferative activity against human […] cells assessed as inhibition of cell growth incubated for 72 hrs MTS assay; type: functional, cell-based; settings: MV4-11, 72 h
# [2] = target: T1, Protein cereblon/Bromodomain-containing protein 4 (Homo sapiens); experiment: Protac activity at CRBN/BRD4 in human MM1.S cells assessed as induction of BRD4 protein degradation by measuring residual activity at 0.01 uM incubated for 3 hrs by Western blot analysis relative to control; type: cell-based
# [3] = target: T1, Protein cereblon/Bromodomain-containing protein 4 (Homo sapiens); experiment: Protac activity at CRBN/BRD4 in human MM1.S cells assessed as induction of BRD4 protein degradation by measuring residual activity at 0.03 uM incubated for 3 hrs by Western blot analysis relative to control; type: cell-based
# [4] = target: T1, Protein cereblon/Bromodomain-containing protein 4 (Homo sapiens); experiment: Protac activity at CRBN/BRD4 in human MM1.S cells assessed as induction of BRD4 protein degradation by measuring residual activity at 0.09 uM incubated for 3 hrs by Western blot analysis relative to control; type: cell-based
# [5] = target: T1, Protein cereblon/Bromodomain-containing protein 4 (Homo sapiens); experiment: Protac activity at CRBN/BRD4 in human MM1.S cells assessed as induction of BRD4 protein degradation by measuring residual activity at 10 nM measured after 6 hrs by Western blot analysis (reference value: 100%); type: cell-based
# [6] = target: T1, Protein cereblon/Bromodomain-containing protein 4 (Homo sapiens); experiment: Protac activity at CRBN/BRD4 in human MM1.S cells assessed as downregulation of MYC protein expression at 300 nM measured after 3 hrs by Western blot analysis; type: cell-based
# [7] = target: T1, Protein cereblon/Bromodomain-containing protein 4 (Homo sapiens); experiment: Protac activity at CRBN/BRD4 in human MV4-11 cells assessed as induction of BRD4 protein degradation by measuring residual activity at 0.001 uM incubated for 3 hrs by Western blot analysis relative to control; type: cell-based
# [8] = target: T1, Protein cereblon/Bromodomain-containing protein 4 (Homo sapiens); experiment: Protac activity at CRBN/BRD4 in human MV4-11 cells assessed as induction of BRD4 protein degradation by measuring residual activity at 0.003 uM incubated for 3 hrs by Western blot analysis relative to control; type: cell-based
# [9] = target: T1, Protein cereblon/Bromodomain-containing protein 4 (Homo sapiens); experiment: Protac activity at CRBN/BRD4 in human MV4-11 cells assessed as induction of BRD4 protein degradation by measuring residual activity at 0.009 uM incubated for 3 hrs by Western blot analysis relative to control; type: cell-based
# [10] = target: T1, Protein cereblon/Bromodomain-containing protein 4 (Homo sapiens); experiment: Protac activity at CRBN/BRD4 in human MV4-11 cells assessed as induction of BRD4 protein degradation by measuring residual activity at 30 nM measured immediately by Western blot analysis (reference value: 100%); type: cell-based
# [11] = target: T1, Protein cereblon/Bromodomain-containing protein 4 (Homo sapiens); experiment: Protac activity at CRBN/BRD4 in human MV4-11 cells assessed as induction of BRD4 protein degradation by measuring residual activity at 30 nM measured after 3 hrs by Western blot analysis (reference value: 100%); type: cell-based
# [12] = target: T1, Protein cereblon/Bromodomain-containing protein 4 (Homo sapiens); experiment: Protac activity at CRBN/BRD4 in human MV4-11 cells assessed as induction of BRD4 protein degradation by measuring residual activity at 30 nM measured after 6 hrs by Western blot analysis (reference value: 100%); type: cell-based
# [13] = target: T1, Protein cereblon/Bromodomain-containing protein 4 (Homo sapiens); experiment: Protac activity at CRBN/BRD4 in human MM1.S cells assessed as induction of BRD4 protein degradation by measuring residual activity at 300 nM measured immediately by Western blot analysis (reference value: 317%); type: cell-based
# [14] = target: T1, Protein cereblon/Bromodomain-containing protein 4 (Homo sapiens); experiment: Protac activity at CRBN/BRD4 in human MM1.S cells assessed as induction of BRD4 protein degradation by measuring residual activity at 300 nM measured after 1 hr by Western blot analysis (reference value: 317%); type: cell-based
# [15] = target: T1, Protein cereblon/Bromodomain-containing protein 4 (Homo sapiens); experiment: Protac activity at CRBN/BRD4 in human MM1.S cells assessed as induction of BRD4 protein degradation by measuring residual activity at 300 nM measured after 3 hrs by Western blot analysis (reference value: 317%); type: cell-based
# [16] = target: T1, Protein cereblon/Bromodomain-containing protein 4 (Homo sapiens); experiment: Protac activity at CRBN/BRD4 in human MM1.S cells assessed as induction of BRD4 protein degradation by measuring residual activity at 300 nM measured after 6 hrs by Western blot analysis (reference value: 317%); type: cell-based
# [17] = target: T1, Protein cereblon/Bromodomain-containing protein 4 (Homo sapiens); experiment: Protac activity at CRBN/BRD4 in human MM1.S cells assessed as induction of BRD4 protein degradation by measuring residual activity at 100 nM measured after 6 hrs by Western blot analysis (reference value: 100%); type: cell-based
# [18] = target: T1, Protein cereblon/Bromodomain-containing protein 4 (Homo sapiens); experiment: Protac activity at CRBN/BRD4 in human MM1.S cells assessed as induction of BRD4 protein degradation by measuring residual activity at 300 nM measured after 6 hrs by Western blot analysis (reference value: 100%); type: cell-based
# [19] = target: T1, Protein cereblon/Bromodomain-containing protein 4 (Homo sapiens); experiment: Protac activity at CRBN/BRD4 in human MV4-11 cells assessed as induction of BRD4 protein degradation by measuring residual activity at 1 nM measured after 6 hrs by Western blot analysis (reference value: 100%); type: cell-based
# [20] = target: T1, Protein cereblon/Bromodomain-containing protein 4 (Homo sapiens); experiment: Protac activity at CRBN/BRD4 in human MV4-11 cells assessed as induction of BRD4 protein degradation by measuring residual activity at 3 nM measured after 6 hrs by Western blot analysis (reference value: 100%); type: cell-based
# [21] = target: T1, Protein cereblon/Bromodomain-containing protein 4 (Homo sapiens); experiment: Protac activity at CRBN/BRD4 in human MV4-11 cells assessed as induction of BRD4 protein degradation by measuring residual activity at 10 nM measured after 6 hrs by Western blot analysis (reference value: 100%); type: cell-based
# [22] = target: T1, Protein cereblon/Bromodomain-containing protein 4 (Homo sapiens); experiment: Protac activity at CRBN/BRD4 in human MV4-11 cells assessed as induction of BRD4 protein degradation by measuring residual activity at 100 nM measured after 6 hrs by Western blot analysis (reference value: 100%); type: cell-based
# [23] = target: T1, Protein cereblon/Bromodomain-containing protein 4 (Homo sapiens); experiment: Protac activity at CRBN/BRD4 in human MM1.S cells assessed as induction of BRD4 protein degradation by measuring residual activity at 300 nM preincubated with tert-butyl (S)-2-(4-(4-chlorophenyl)-2,3,9-trimethyl-6H-thieno[3,2-f][1,2,4]triazolo[4,3-a][1,4]diazepin-6-yl)acetate for 2 hrs followed by compound addition and measured after 6 hrs by Western blot analysis (reference value: 100%); type: cell-based
# [24] = Inhibition of TGF-beta induced activation of human MRC5 cells assessed as residual BRD4 protein level at 0.1 uM by Western blot analysis (reference value: 96%); type: functional
# [25] = Inhibition of TGF-beta induced activation of human MRC5 cells assessed as residual BRD4 protein level at 0.5 uM by Western blot analysis (reference value: 96%); type: functional
# [26] = Inhibition of TGF-beta induced activation of human MRC5 cells assessed as residual BRD4 protein level at 1 uM by Western blot analysis (reference value: 96%); type: functional
# [27] = Inhibition of TGF-beta induced activation of human MRC5 cells assessed as residual BRD4 protein level at 5 uM by Western blot analysis (reference value: 96%); type: functional
# [28] = Inhibition of TGF-beta induced activation of human MRC5 cells assessed as residual BRD4 protein level at 10 uM by Western blot analysis (reference value: 100%); type: functional
structure (smiles),measurement,setting,value
Cc1sc2c(c1C)C(c1ccc(Cl)cc1)=N[C@@H](CC(=O)NCCCCC(=O)NCCNc1cccc3c1C(=O)N(C1CCC(=O)NC1=O)C3=O)c1nnc(C)n1-2 (stereo not given in full),Activity,[1],50%
same,IC50,MM1.S,27 nM
same,IC50,MV4-11,3 nM
same,Activity,[2],93%
same,Activity,[3],81%
same,Activity,[4],70%
same,Activity,[5],62%
same,Activity,[6],Active
same,Activity,[7],100%
same,Activity,[8],66%
same,Activity,[9],62%
same,Activity,[10],110%
same,Activity,[11],72%
same,Activity,[12],13%
same,Activity,[13],362%
same,Activity,[14],129%
same,Activity,[15],66%
same,Activity,[16],18%
same,Activity,[17],24%
same,Activity,[18],17%
same,Activity,[19],107%
same,Activity,[20],80%
same,Activity,[21],41%
same,Activity,[22],28%
same,Activity,[23],61%
same,Activity,[24],31%
same,Activity,[25],26%
same,Activity,[26],40%
same,Activity,[27],33%
same,Activity,[28],25%
